{"source": "patent EP3250181B1", "about": "“MINOXIDIL-BASED PHARMACEUTICAL FORMULATION FOR THE TOPICAL USE AND KIT THEREOF” (Farmalabor S.r.l., priority 2014, dated 2016)", "key": {"[1]": {"experiment": "Stability, first study: real storage conditions, HPLC", "settings": "formulation A, room temperature, both in the presence and in the absence of light"}, "[2]": {"experiment": "Stability, second study: cold-warm cycle in climate room for 60 hours", "settings": "formulation A, 4°C/25°C/40°C cycle, dark or UV/Vis light"}}, "data": [{"molecule": "Nc1cc(N2CCCCC2)nc(N)[n+]1[O-]", "note": "[Minoxidil]", "values": [{"measurement": "stability of Minoxidil in the gel", "setting": "[1]", "result": "stable in the gel for 5 weeks"}, {"measurement": "chemical stability after cold-heat shock", "setting": "[2]", "result": "chemical stability of Minoxidil into the gel also after a cold-heat shock"}]}]}
